US20250066389A1, “HETEROCYCLIC AMIDES AND METHODS OF USING THE SAME” (Rgenta Therapeutics, Inc., priority 2021, published 2025)
Counter-ions that a name gives are not always drawn.

system: PMS1; experiment: Mini-Gene Reporter Assay—PMS1 (firefly luciferase mini-gene reporter transiently transfected into HEK293 cells); type: cell-based; settings: Homo sapiens; at 5 uM; mini-gene firefly luciferase reporter in HEK293 cells; read-out: PMS1 % Effect at 5 uM
Source text: Example 76. Mini-Gene Reporter Assay—PMS1
Mini-gene reporter constructs for each target site can be constructed by first PCR amplifying the region-of-interest including the sequence of the alternatively skipped, sequences of the immediate upstream and downstream introns, and sequences of the immediate upstream and downstream exons. Then the 3′ end of the amplified sequence can be ligated to a firefly luciferase reporter gene and cloned into the pcDNA3.1 vector backbone. The final reporter construct can be transiently transfected into HEK293 cells using Lipofectamine 3000 transfection reagents. Compounds that can induce the inclusion of the skipped exon in the reporter construct would increase the reporter firefly luciferase activity.
Test compounds may be diluted in duplicates and dispensed into an assay plate. Transient mini-gene reporter cell line stock is resuspended and dispensed into the assay plate. Assay plates are then centrifuged and incubated. A luciferase reagent (e.g. ONE-Glo firefly luciferase reagent from Promega®) may be added to the assay plate and the luminescence (RLU) signals recorded. EC50 values may be determined by curve fitting in Levenberg-Marquardt algorithm.
In Table D below, A indicates a IC50 (μM)<1 μM, B indicates a IC50 (μM) 1 μM to <10 μM, and C indicates a IC50 (μM) 10 μM to <50 μM. In Table D below, A indicates a >75% Effect at 5 μM μM. B indicates a 50 to <75% Effect at 5 μM μM, and C indicates a <50% Effect at 5 μM.

| Compound | activation at 5 µM |
| --- | --- |
| COc1cc2nc(C)cn2cc1C(=O)Nc1ccc(N2C[C@H]3CNC[C@H]3C2)cc1F [Compound 161, N-(2-fluoro-4-((3aR,6aS)-hexahydropyrrolo[3,4-c]pyrrol-2(1H)-yl)phenyl)-7-methoxy-2-methylimidazo[1,2-a]pyridine-6-carboxamide] | > 75% |
| COc1cc2nc(C)cn2cc1C(=O)Nc1ccc(N2CC(C)NCC2C)cc1F (centres unmarked) [Compound 163, N-(4-(2,5-dimethylpiperazin-1-yl)-2-fluorophenyl)-7-methoxy-2-methylimidazo[1,2-a]pyridine-6-carboxamide] | > 75% |
| CNC1CCN(c2ccc(NC(=O)c3cn4cc(C)nc4cc3OC)c(F)c2)CC1 [Compound 164, N-(2-fluoro-4-(4-(methylamino)piperidin-1-yl)phenyl)-7-methoxy-2-methylimidazo[1,2-a]pyridine-6-carboxamide] | > 75% |
| CNCC1CCN(c2ccc(NC(=O)c3cn4cc(C)nc4cc3OC)c(F)c2)C1 (centres unmarked) [Compound 166, N-(2-fluoro-4-(3-((methylamino)methyl)pyrrolidin-1-yl)phenyl)-7-methoxy-2-methylimidazo[1,2-a]pyridine-6-carboxamide] | < 50% |
| CNC1CCCN(c2ccc(NC(=O)c3cn4cc(C)nc4cc3OC)c(F)c2)C1 (centres unmarked) [Compound 167, N-(2-fluoro-4-(3-(methylamino)piperidin-1-yl)phenyl)-7-methoxy-2-methylimidazo[1,2-a]pyridine-6-carboxamide] | 50 to 75% |
| CCNC1CCN(c2ccc(NC(=O)c3cn4cc(C)nc4cc3OC)c(F)c2)C1 (centres unmarked) [Compound 168, N-(4-(3-(ethylamino)pyrrolidin-1-yl)-2-fluorophenyl)-7-methoxy-2-methylimidazo[1,2-a]pyridine-6-carboxamide] | > 75% |
| COc1cc2nc(C)cn2cc1C(=O)Nc1ccc(N(C)C2CCNCC2)cc1F [Compound 169, N-(2-fluoro-4-(methyl(piperidin-4-yl)amino)phenyl)-7-methoxy-2-methylimidazo[1,2-a]pyridine-6-carboxamide] | 50 to 75% |
| COc1cc2nc(C)cn2cc1C(=O)Nc1ccc(N2CCC3CC2CN3)cc1F (centres unmarked) [Compound 170, N-(4-(2,6-diazabicyclo[3.2.1]octan-2-yl)-2-fluorophenyl)-7-methoxy-2-methylimidazo[1,2-a]pyridine-6-carboxamide] | > 75% |
| COc1cc2nc(C)cn2cc1C(=O)Nc1ccc(N2CCC3(CCN3)C2)cc1F (centres unmarked) [Compound 171, N-(2-fluoro-4-(1,6-diazaspiro[3.4]octan-6-yl)phenyl)-7-methoxy-2-methylimidazo[1,2-a]pyridine-6-carboxamide] | > 75% |
| COc1cc2nc(C)cn2cc1C(=O)Nc1ccc(N2CCC3(CC2)COC(C)CN3)cc1F (centres unmarked) [Compound 172, N-(2-fluoro-4-(3-methyl-4-oxa-1,9-diazaspiro[5.5]undecan-9-yl)phenyl)-7-methoxy-2-methylimidazo[1,2-a]pyridine-6-carboxamide] | 50 to 75% |
| CCOc1cc2nn(C)cc2cc1C(=O)Nc1ccc(N2CCN[C@@H](C)C2)nn1 [Compound 208, (S)-6-ethoxy-2-methyl-N-(6-(3-methylpiperazin-1-yl)pyridazin-3-yl)-2H-indazole-5-carboxamide HCl Salt] | > 75% |

same assay, conditions: Homo sapiens; mini-gene firefly luciferase reporter in HEK293 cells

| IC50 | Compound |
| --- | --- |
| 1 to 10 µM | COc1cc2nc(C)cn2cc1C(=O)Nc1ccc(N2CCNC(CC(F)F)C2)cc1F (centres unmarked) [Compound 173, N-(4-(3-(2,2-difluoroethyl)piperazin-1-yl)-2-fluorophenyl)-7-methoxy-2-methylimidazo[1,2-a]pyridine-6-carboxamide] |
| < 1 µM | COc1cc2nc(C)cn2cc1C(=O)Nc1ccc(N2CCCNCC2)cc1F [Compound 175, N-(4-(1,4-diazepan-1-yl)-2-fluorophenyl)-7-methoxy-2-methylimidazo[1,2-a]pyridine-6-carboxamide] |
| < 1 µM | CNC1CCN(c2ccc(NC(=O)c3cn4cc(C)nc4cc3OC)c(F)c2)C1 (centres unmarked) [Compound 176, N-(2-fluoro-4-(3-(methylamino)pyrrolidin-1-yl)phenyl)-7-methoxy-2-methylimidazo[1,2-a]pyridine-6-carboxamide] |
| < 1 µM | COc1cc2nc(C)cn2cc1C(=O)Nc1ccc(N2CCNCC2C)cc1F (centres unmarked) [Compound 177, N-(2-fluoro-4-(2-methylpiperazin-1-yl)phenyl)-7-methoxy-2-methylimidazo[1,2-a]pyridine-6-carboxamide] |
| < 1 µM | COc1cc2nc(C)cn2cc1C(=O)Nc1ccc(N(C)C2CCNC2)cc1F (centres unmarked) [Compound 178, N-(2-fluoro-4-(methyl(pyrrolidin-3-yl)amino)phenyl)-7-methoxy-2-methylimidazo[1,2-a]pyridine-6-carboxamide] |
| < 1 µM | COc1cc2nc(C)cn2cc1C(=O)Nc1ccc(N2CCNC(C)C2)cc1F (centres unmarked) [Compound 179, N-(2-fluoro-4-(3-methylpiperazin-1-yl)phenyl)-7-methoxy-2-methylimidazo[1,2-a]pyridine-6-carboxamide] |
| < 1 µM | COc1cc2nc(C)cn2cc1C(=O)Nc1ccc(N(C)C2CNC2)cc1F [Compound 180, N-(4-(azetidin-3-yl(methyl)amino)-2-fluorophenyl)-7-methoxy-2-methylimidazo[1,2-a]pyridine-6-carboxamide] |
| < 1 µM | COc1cc2nc(C)cn2cc1C(=O)Nc1cnc(N2CCN[C@@H](C)C2)cn1 [Compound 198, (S)-7-methoxy-2-methyl-N-(5-(3-methylpiperazin-1-yl)pyrazin-2-yl)imidazo[1,2-a]pyridine-6-carboxamide hydrochloride] |
| < 1 µM | Cc1cn2cc(C(=O)Nc3ccc(N4CCN[C@@H](C)C4)nn3)c(OC(C)C)cc2n1 [Compound 199, (S)-7-isopropoxy-2-methyl-N-(6-(3-methylpiperazin-1-yl)pyridazin-3-yl)imidazo[1,2-a]pyridine-6-carboxamide] |
| < 1 µM | Cc1cn2cc(C(=O)Nc3ccc(N4CCN[C@@H](C)C4)nn3)c(OC3CCOC3)cc2n1 (stereo partly drawn) [Compound 206, 2-methyl-N-(6-((S)-3-methylpiperazin-1-yl)pyridazin-3-yl)-7-((tetrahydrofuran-3-yl)oxy)imidazo[1,2-a]pyridine-6-carboxamide hydrochloride] |
| < 1 µM | CCOc1cc2nn(C)cc2cc1C(=O)Nc1ccc(N2CCN[C@@H](C)C2)nn1 [Compound 208, (S)-6-ethoxy-2-methyl-N-(6-(3-methylpiperazin-1-yl)pyridazin-3-yl)-2H-indazole-5-carboxamide HCl Salt] |
| < 1 µM | CCOc1cc2nc(C)cn2cc1C(=O)Nc1ccc(N2CCNC3(CC3)C2)nn1 [Compound 210, N-(6-4,7-diazaspiro[2.5]octan-7-ylpyridazin-3-yl)-7-ethoxy-2-methylimidazo[1,2-a]pyridine-6-carboxamide] |
| 10 to 50 µM | Cc1cn2cc(C(=O)Nc3ccc(N4CCN[C@@H](C)C4)nn3)c(OC3CCOCC3)cc2n1 [Compound 211, (S)-2-methyl-N-(6-(3-methylpiperazin-1-yl)pyridazin-3-yl)-7-((tetrahydro-2H-pyran-4-yl)oxy)imidazo[1,2-a]pyridine-6-carboxamide hydrochloride] |
| 1 to 10 µM | Cc1cn2cc(C(=O)Nc3ccc(N4CCN[C@@H](C)C4)nn3)c(O[C@@H]3CCOC3)cc2n1 [Compound 212, 2-methyl-N-(6-((S)-3-methylpiperazin-1-yl)pyridazin-3-yl)-7-((tetrahydrofuran-3-yl)oxy)imidazo[1,2-a]pyridine-6-carboxamide] |
| < 1 µM | Cc1cn2cc(C(=O)Nc3ccc(N4CCN[C@@H](C)C4)nn3)c(O[C@H]3CCOC3)cc2n1 [Compound 213, 2-methyl-N-(6-((S)-3-methylpiperazin-1-yl)pyridazin-3-yl)-7-((tetrahydrofuran-3-yl)oxy)imidazo[1,2-a]pyridine-6-carboxamide] |
| < 1 µM | CCc1nc(C(=O)Nc2ccc(N3CCN[C@@H](C)C3)nn2)cn2cc(C)nc12 [Compound 214, 8-ethyl-2-methyl-N-{6-[(3S)-3-methylpiperazin-1-yl]pyridazin-3-yl}imidazo[1,2-a]pyrazine-6-carboxamide] |
| < 1 µM | CCOc1cn2nc(C)cc2cc1C(=O)Nc1ccc(N2CCN[C@@H](C)C2)nn1 [Compound 215, (S)-6-ethoxy-2-methyl-N-(6-(3-methylpiperazin-1-yl)pyridazin-3-yl)pyrazolo[1,5-a]pyridine-5-carboxamide HCl Salt] |

| Compound | IC50 |
| --- | --- |
| COc1cc2nc(C)cn2cc1C(=O)Nc1ccc(N2CC3CCC(C2)N3)cc1F [Compound 165, N-(4-(3,8-diazabicyclo[3.2.1]octan-3-yl)-2-fluorophenyl)-7-methoxy-2-methylimidazo[1,2-a]pyridine-6-carboxamide] | < 1 µM |
| Cc1cn2cc(C(=O)Nc3ccc(N4CCNCC4)nn3)c(OC3CCC3)cc2n1 [Compound 205, 7-cyclobutoxy-2-methyl-N-(6-(piperazin-1-yl)pyridazin-3-yl)imidazo[1,2-a]pyridine-6-carboxamide hydrochloride] | < 1 µM |
| Cn1cc2cc(C(=O)Nc3ccc(N4CCNCC4)nn3)c(OC3CCC3)cc2n1 [Compound 207, 6-cyclobutoxy-2-methyl-N-(6-(piperazin-1-yl)pyridazin-3-yl)-2H-indazole-5-carboxamide HCl Salt] | < 1 µM |
| C[C@H]1CN(c2ccc(NC(=O)c3cc4cn(C)nc4cc3OC3CCC3)nn2)CCN1 [Compound 209, (S)-6-cyclobutoxy-2-methyl-N-(6-(3-methylpiperazin-1-yl)pyridazin-3-yl)-2H-indazole-5-carboxamide HCl Salt] | < 1 µM |
